In patent US7517654B2, “Peptide and a derivative thereof promoting cell adhesion and spreading” (Seoul National University Industry Foundation, priority 2004, dated 2009):

B1: rLG3: recombinant His6-tagged LG3 domain, residues 1128-1364 of human laminin α3 chain (protein, listed as Homo sapiens)
chain: VRLNDTVGVTKKCSEDWKLVRSASFSRGGQLSFTDLGLPPTDHLQASFGFQTFQPSGILLDHQTWTRNLQVTLEDGYIELSTSDSGGPIFKSPQTYMDGLLHYVSVISDNSGLRLLIDDQLLRNSKRLKHISSSRQSLRLGGSNFEGCISNVFVQRLSLSPEVLDLTSNSLKRDVSLGGCSLNKPPFLMLLKGSTRFNKTKTFRINQLLQDTPVASPRSVKVWQDACSPLPKTQANH
modifications: His6 tag
notes: recombinant His6-tagged LG3 domain, residues 1128-1364 of human laminin α3 chain

How the values were obtained:
Assay type in all cases: cell-based, human
HOK-16B cells [1] = assay: Competition of soluble peptides for HOK-16B cell adhesion to rLG3-coated plates; settings: HOK-16B cells preincubated 30 min with 100 μg/ml peptide, control without peptide = 100%
Procedure: To identify the receptor of the HOK-16B cells for rLG3 protein and peptide P4, 5 μg/ml of mAbs to different types of integrins or 5 mM EDTA were preincubated individually with HOK-16B cells in 0.5 ml incubation solution (2×10^5 cells/ml) for 30 min at 37° C. The preincubated cells were then transferred onto plates precoated with either 25 μg/ml of rLG3 protein or 10 μg/well of peptide P4 and incubated for 1 h at 37° C. Attached cells were then quantified by the cell adhesion assay described above in the Experimental Example 2, and cell adhesion activity inhibition rate were measured.
Accordingly, the inventors examined the ability of peptide P4 to compete for cell adhesion activity to rLG3 domain by the method of Experimental Example 4. First, the purified rLG3 proteins (25 μg/well) were coated onto 24-well plates. HOK-16B cells were preincubated with the various peptides (100 μg/ml) or without the peptide for 30 min at 37° C. The preincubated cells were then added to rLG3-coated plates and cultured for 1 h in serum-free medium. The unbound cells were washed off and the adherent cells were fixed and stained with crystal violet. The average adhesion activity of the control cultures (HOK-16B cells preincubated without peptide) was considered 100%, the results are expressed as mean ±SD of the four independent experiments.

NHEK = assay: Cell proliferation on coated plates, viable cell count by trypan blue exclusion; settings: peptide P4 20 μg/12-well plate; 1-4 days; compared with PS-coated plate
Procedure: Normal human epidermal keratinocytes (NHEK) tissue samples were prepared from foreskin tissue of healthy 1- to 3-year-old people. The tissue samples were washed three times with calcium- and magnesium-free Hanks balanced salt solution containing 3× antibiotics (CMF-HBSS; GibcoBRL), and added with CMF-HBSS containing collgenase (collgenase type II, 1.0 mg/ml; sigma Chemical Co.) and dispase (dispase grade II, 2.4 mg/ml; Boeringer-Mannheim) to isolate epithelial layer from epidermal tissue, and then, cultured in 95% air and 5% CO2 at 37° C. for 90 min. NHEKs were prepared from the isolated epidermal tissue, and cultured in epithelial cell medium containing 0.15 mM calcium and growth factor bullet kit (KGM; Clonetics Corp.). When cell density was about 70%, NHEKs were divided into 1×10^5 cells per 60-mm petri dish and cultured until cell density reached about 70%. NHEKs were subcultured two times the same way as the above and used.
(§1) Polystyrene (PS), BSA (bovine serum albumin) and synthetic peptide P4 were coated on […]. NHEK (PD 13.0; 2×10^4 cells/12-well plate) and NHEF (passage number 4) cultures were added to the 12-well plate coated with the polystyrene (PS), BSA (1%) and synthetic peptide P4 (20 μg/12-well plate), and cultured for 1, 2, 3, or 4 days. Viable cells were counted by trypan blue exclusion in a hemocytometer. Data are expressed as mean ±SD (n=4).

HOK-16B cells [2] = assay: Cell adhesion assay on coated plates (crystal violet absorbance at 570 nm / cell counting)
Procedure: The cell adhesion assay was performed according to a method reported by Okazaki et al. (J. Biol. Chem., 277:37070, 2002). In detail, 24-well culture plates (Nunc, Roskilde, Denmark) were coated with various amounts of rLG proteins at 4° C. overnight. The peptides were also coated on plates by drying overnight. The substrate-coated on the plates were blocked by adding 1% heat-inactivated bovine serum albumin (BSA) in PBS for 1 h at 37° C. and washed twice with PBS. The cells in the Experimental Example 1, detached by 0.05% tyrpsin and 0.53 mM EDTA in PBS and resuspended in culture media, were added (1×10^5 cells/500 μl) to each plate and incubated for 1 h at 37° C. After incubation, unattached cells were removed by rinsing twice with PBS. The attached cells were fixed with 10% formalin in PBS for 15 min, rinsed twice with PBS, and stained with 0.5% crystal violet for 1 h. The plates were gently rinsed with DDW three times and lysed with 2% SDS for 5 min. Absorbance was measured at 570 nm in a Bio-Rad Model 550 microplate reader (BioRad).
The cell adhesion and spreading activities on peptide-coated plates were examined using HOK-16B cells by the same method as Experimental Example 2. 24-well plates were coated with 10, 20, 30, 40 and 50 μg/well peptides P1 to P5, respectively. HOK-16B cells were added to peptide-coated plates and cultured for 1 h in serum-free medium for 1 hr. After the unbound cells were washed off, adherent cells were fixed and stained with crystal violet, and then the stained cells were analyzed. Absorbance was measured at 570 nm in a microplate reader. BSA and the rLG3 were used as negative control and positive control, respectively.
It was observed that peptide P4 promotes strong cell adhesion and spreading activities and binds to integrin α3β1 in the Example 4. Therefore, to determine the biologically active core sequences in peptide P4, five synthetic peptides (P4 D-I to P4 D-V), which are C-terminal truncated peptides from the peptide P4, and six synthetic peptides (P4 D-N1 to P4 D-N6), which are N-terminal truncated peptides from the peptide P4 were prepared (FIG. 6A) and examined for HOK-16B cell adhesion and spreading activities on peptide-coated plates by the present inventors. 24-well plates were coated with 10 μg/well C-terminal truncated peptides or N-terminal truncated peptides, and HOK-16B cells were added to the plates, and then cultured in serum-free medium for 1 hr. After the unbound cells were washed off, the adherent cells were fixed to stain with crystal violet, and the stained cells were analyzed. Absorbance was measured at 570 nm in a microplate reader. Peptide P4 and BSA were used as the positive and negative controls, respectively.
24-well plates were coated with 10 μg/well peptides, and HOK-16B cells were added to the plates, and then cultured in serum-free medium for 1 hr. After the unbound cells were washed off, the adherent cells were fixed to stain with crystal violet, and the stained cells were analyzed. Peptide P4 and BSA were used as the positive and negative controls, respectively. The results were expressed as mean ±SD of the four independent experiments.

NHEF = assay: Cell proliferation on coated plates, viable cell count by trypan blue exclusion; settings: peptide P4 20 μg/12-well plate; 1-4 days; compared with PS-coated plate
Text: Normal human […] (NHEF) were taken from foreskin tissue of healthy 1- to 3-year-old people, and washed three times with calcium- and magnesium-free Hanks balanced salt solution containing 3× antibiotics (CMF-HBSS; GibcoBRL), and prepared by explant culture. When cell density was about 80%, NHEFs were divided by the ratio of 1:3 and cultured until cell density reached about 80%. […] were subcultured 4 times the same way as the above and used.
as §1

| Molecule | inhibition of cell adhesion to rLG3 (HOK-16B cells [1]) | increase in the number of NHEKs according to cell proliferation (NHEK) | coating concentration at which maximum cell adhesion was obtained (HOK-16B cells [2]; HOK-16B cells, peptide-coated 24-well plates) | cell adhesion activity of synthetic peptides (HOK-16B cells [2]; HOK-16B cells, plates coated with 10-50 μg/well peptide, 1 h, serum-free medium) | increase in the number of NHEFs according to cell proliferation (NHEF) | reduction of the level of cell adhesion compared to the 5 μg/ml laminin-coated control (HOK-16B cells [2]; 50 μg/ml rLG3 protein coating) | cell adhesion activity of rLG proteins (HOK-16B cells [2]; HOK-16B cells on rLG protein-coated plates, 1 h, compared to BSA control) | coating concentration at which maximum adhesion occurs (HOK-16B cells [2]; HOK-16B cells, rLG protein-coated plates) |
| --- | --- | --- | --- | --- | --- | --- | --- | --- |
| PPFLMLLKGSTR [peptide P4] | approximately 51% | increased more than that on PS-coated plate | ≥ 10 μg/well | strong dose-dependent cell adhesion activity | similar |  |  |  |
| B1 |  |  |  |  |  | approximately 45% | exhibited the adhesive activity | 25 µg/mL |
